Assay results from publication PMC12199414, “A Self‐Assembling LYTAC Mediates CTGF Degradation and Remodels Inflammatory Tumor Microenvironment for Triple‐Negative Breast Cancer Therapy” (Advanced Science, 2025).
Residues, ends and D or L forms follow the SMILES beside them. No end group written: not given here.

Columns and labels:
red blood cells = experiment: Hemolysis assay; type: cell-based, mice; details: mouse erythrocytes, 0-30 × 10^−6 M, 1 h, 37 °C, absorbance 570 nm
Description: The hemolytic activities of CL8, CL8‐M6P3, and NanoCLY were determined by monitoring hemoglobin release from red blood cells. Fresh erythrocytes were obtained from the whole blood of mice by centrifugation (1000 × g for 30 min at 4 °C), and washed three times with cold 0.9% NaCl. The erythrocytes were dispensed into 96‐well plates, incubated with CL8, CL8‐M6P3 and NanoCLY at specified concentrations (0, 0.3, 1, 3, 10, and 30 × 10^−6 M) for 1 h at 37 °C, centrifuged at 1000 × g for 10 min, the supernatant samples were collected, and the absorbance at 570 nm was measured by microplate reader Cytation 5 (Biotek, USA). The negative control group was defined as the absorbance obtained in 1× PBS (A PBS), and 100% hemolysis in 0.1%Triton X‐100 (v/v) (A Triton). The hemolysis percentage was calculated as: (A peptide − A PBS)/(ATriton − A PBS) × 100%.

CTGF = molecular target: T1, CTGF (Homo sapiens, UniProt P29279); experiment: ELISA of extracellular CTGF in culture media of TNBC cells; type: cell-based; details: in vitro, BT549 and MDA-MB-231 culture media, 12 h
T1 construct: endogenous in cells; host or cells: BT549 and MDA-MB-231 (human TNBC cell lines)
T1 sequence (P29279 27-349): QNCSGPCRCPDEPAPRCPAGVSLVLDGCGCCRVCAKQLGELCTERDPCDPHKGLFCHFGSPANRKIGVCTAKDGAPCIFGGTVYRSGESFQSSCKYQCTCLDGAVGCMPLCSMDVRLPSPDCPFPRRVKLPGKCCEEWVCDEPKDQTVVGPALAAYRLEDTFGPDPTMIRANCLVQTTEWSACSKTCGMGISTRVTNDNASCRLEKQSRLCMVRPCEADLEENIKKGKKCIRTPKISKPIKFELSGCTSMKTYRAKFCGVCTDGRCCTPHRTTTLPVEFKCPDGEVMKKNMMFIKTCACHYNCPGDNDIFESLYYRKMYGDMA
Description: BT549 and MDA‐MB‐231 cells were treated with various concentrations of CL8‐M6P3 or NanoCLY for 12 h. Extracellular CTGF protein level in conditioned media was quantified by a human CTGF ELISA kit following the manufacturer's instructions (ab261851, Abcam and CSB‐E07875h, Cusabio). Extracellular CCN1, CCN3, and CCN4 protein levels were quantified using respective ELISA kits (HY‐P7842, HY‐P701327, HY‐P78051, MCE) following the manufacturer's instructions (CSB‐EL015956HU, CSB‐EL026119HU, CSB‐E13884h, Cusabio). Additionally, BSP and β‐CTx levels in serum were quantified by ELISA kit following the manufacturer's instructions (BPE10823, BPE10438, lengton).

CCN1 = molecular target: T2, CCN1 (Homo sapiens, UniProt O00622); experiment: Binding to CCN1 (Dianthus system); details: Figure S7a
T2 sequence (O00622 25-381): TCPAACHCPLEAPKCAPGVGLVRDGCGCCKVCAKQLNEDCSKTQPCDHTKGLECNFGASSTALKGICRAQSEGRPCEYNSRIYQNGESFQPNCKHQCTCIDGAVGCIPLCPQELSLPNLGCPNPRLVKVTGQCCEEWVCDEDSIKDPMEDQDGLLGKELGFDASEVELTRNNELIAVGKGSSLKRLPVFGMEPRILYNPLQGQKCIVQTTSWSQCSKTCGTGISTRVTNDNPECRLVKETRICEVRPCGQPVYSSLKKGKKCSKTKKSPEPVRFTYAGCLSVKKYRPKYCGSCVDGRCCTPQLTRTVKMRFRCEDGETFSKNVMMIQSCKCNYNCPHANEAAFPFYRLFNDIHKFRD
Description: (§1) The affinity between various peptides (CL8, CC14, LT12, CC14S, CE8, FH14S, FH14, and CL8‐M6P3) and purified rhCTGF‐His tag protein (C15W, Novoprotein), IGFBP protein, and TSP proteins, was evaluated using microscale thermophoresis (NanoTemper, Germany). Additionally, the interaction between CL8‐M6P3 and the CCN1, CCN3, and CCN4 proteins was measured using the Dianthus system (NanoTemper, Germany). Prior to measurements, the purified proteins were labeled with fluorescent dye Monolith RED‐NHS (MO‐L011, NanoTemper). For the MST assay, 2 × 10^−6 M proteins (10 µL) were added with variable concentrations of the above peptides in PBST buffer (10 µL, PBS containing 0.05% Tween‐20). After a short incubation, the mixture was loaded into the Monolith NT.115 capillary (MO‐K022, NanoTemper) and analyzed using the Monolith NT.115 (NanoTemper, Germany).

[1] = molecular target: IGFBP protein (N-terminal domain of CTGF) (Homo sapiens, UniProt P29279); experiment: MST binding to IGFBP domain of CTGF; details: Figure S6b
Description: as §1

CCN3 = molecular target: T3, CCN3 (Homo sapiens, UniProt P48745); experiment: Binding to CCN3 (Dianthus system); details: Figure S7a
T3 sequence (P48745 32-357): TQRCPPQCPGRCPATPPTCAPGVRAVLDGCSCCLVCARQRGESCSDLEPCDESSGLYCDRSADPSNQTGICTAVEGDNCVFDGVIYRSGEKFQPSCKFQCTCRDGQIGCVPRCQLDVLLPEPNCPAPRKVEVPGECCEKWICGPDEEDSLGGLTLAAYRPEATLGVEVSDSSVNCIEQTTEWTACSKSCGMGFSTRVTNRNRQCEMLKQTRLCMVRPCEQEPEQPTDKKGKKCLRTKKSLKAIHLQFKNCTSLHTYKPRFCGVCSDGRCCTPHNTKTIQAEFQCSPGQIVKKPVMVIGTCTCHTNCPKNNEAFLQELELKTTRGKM
Description: as §1

[2] = molecular target: T4, TSP proteins (C-terminal domain of CTGF) (Homo sapiens, UniProt P29279); experiment: MST binding to TSP domain of CTGF; details: Figure S6c
T4 sequence (P29279 198-243 limits assumed): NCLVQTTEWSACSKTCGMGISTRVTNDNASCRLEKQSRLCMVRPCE
Description: as §1

CCN4 = molecular target: T5, CCN4 (Homo sapiens, UniProt O95388); experiment: Binding to CCN4 (Dianthus system); details: Figure S7a
T5 sequence (O95388 23-367): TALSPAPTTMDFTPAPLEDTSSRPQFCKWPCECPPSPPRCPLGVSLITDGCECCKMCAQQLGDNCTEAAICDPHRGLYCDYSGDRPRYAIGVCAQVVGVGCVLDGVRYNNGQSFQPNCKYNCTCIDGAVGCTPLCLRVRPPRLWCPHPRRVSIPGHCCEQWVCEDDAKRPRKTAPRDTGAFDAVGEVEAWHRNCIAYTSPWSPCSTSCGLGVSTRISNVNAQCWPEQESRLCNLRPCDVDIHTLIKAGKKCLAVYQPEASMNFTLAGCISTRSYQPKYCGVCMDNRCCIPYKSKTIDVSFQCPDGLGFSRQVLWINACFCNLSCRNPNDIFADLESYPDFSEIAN
Description: as §1

rhCTGF‐His tag protein = molecular target: T6, rhCTGF‐His tag protein (Homo sapiens, UniProt P29279); experiment: MicroScale Thermophoresis (MST) binding to CTGF; details: Monolith NT.115, protein labelled with Monolith RED-NHS, 2 × 10^−6 M protein, PBST buffer (PBS, 0.05% Tween-20)
T6 construct: purchased Novoprotein C15W
T6 sequence (P29279 27-349): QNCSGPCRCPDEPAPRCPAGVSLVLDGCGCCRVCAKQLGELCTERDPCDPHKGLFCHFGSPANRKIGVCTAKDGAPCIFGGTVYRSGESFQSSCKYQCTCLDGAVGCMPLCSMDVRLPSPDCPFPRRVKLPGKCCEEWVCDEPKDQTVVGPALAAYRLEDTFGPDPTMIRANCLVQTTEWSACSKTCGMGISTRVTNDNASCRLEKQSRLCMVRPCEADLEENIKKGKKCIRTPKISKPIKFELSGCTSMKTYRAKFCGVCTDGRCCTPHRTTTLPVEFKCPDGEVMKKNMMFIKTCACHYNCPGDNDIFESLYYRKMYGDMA
Description: as §1

[3] = molecular target: T7, recombinant human CTGF‐His tag (connective tissue growth factor) (human), P29279; experiment: MST; proteins labeled with Monolith RED-NHS; 2 × 10^-6 M protein (10 µL) mixed with variable concentrations of peptide in PBST (10 µL, PBS with 0.05% Tween-20); Monolith NT.115
T7 chain: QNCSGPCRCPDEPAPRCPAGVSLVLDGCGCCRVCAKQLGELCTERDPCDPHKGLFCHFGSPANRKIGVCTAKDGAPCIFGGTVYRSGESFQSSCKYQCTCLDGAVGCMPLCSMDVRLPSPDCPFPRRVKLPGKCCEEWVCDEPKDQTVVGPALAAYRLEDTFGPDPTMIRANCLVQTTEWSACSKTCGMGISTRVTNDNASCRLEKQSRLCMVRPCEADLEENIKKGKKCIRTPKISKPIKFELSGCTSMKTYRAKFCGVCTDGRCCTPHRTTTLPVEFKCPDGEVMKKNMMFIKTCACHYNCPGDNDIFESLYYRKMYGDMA

[4] = molecular target: T8, recombinant human CTGF‐His tag (connective tissue growth factor) (human, UniProt P29279 27-349, labeled with fluorescent dye Monolith RED‐NHS); experiment: as above; details: both partners purified
T8 construct: connective tissue growth factor (CTGF/CCN2), human, recombinant; also called CCN2; rhCTGF‐His tag protein; source: bought: Novoprotein (C15W), purified
T8 sequence (looked up): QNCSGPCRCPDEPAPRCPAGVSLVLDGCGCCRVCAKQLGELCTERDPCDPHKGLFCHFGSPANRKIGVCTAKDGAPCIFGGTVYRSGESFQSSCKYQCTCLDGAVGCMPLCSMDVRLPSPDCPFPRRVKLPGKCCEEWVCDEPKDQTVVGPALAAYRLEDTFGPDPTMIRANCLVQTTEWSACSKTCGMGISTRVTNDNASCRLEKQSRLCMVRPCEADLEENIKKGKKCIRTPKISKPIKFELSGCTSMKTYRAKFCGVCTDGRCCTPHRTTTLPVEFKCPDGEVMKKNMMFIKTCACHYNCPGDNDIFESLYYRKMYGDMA

With “H-CPSAAHYL-PEG3-[Pra(M6P)βAla]3-NH2 [CL8‐M6P3, peptide-based CTGF-LYTAC: CL8 conjugated to glycopeptide scaffold M6P3 by a PEG3 linker]” the hemolysis safety (red blood cells) was “good hemolysis safety”, the “extracellular CTGF degraded” value (CTGF) was “≈ 50%” and the “binding interaction with CCN1” value (CCN1) was “no binding interactions”. For the same molecule, the “interaction with IGFBP domain of CTGF” value [1] was “interacts”, the “binding interaction with CCN3” value (CCN3) was “no binding interactions” and the “interaction with TSP domain of CTGF” value [2] was “interacts”. For the same molecule, the “binding interaction with CCN4” value (CCN4) was “no binding interactions”.

`CC(C)C[C@H](NC(=O)[C@H](Cc1ccc(O)cc1)NC(=O)[C@H](Cc1c[nH]cn1)NC(=O)[C@H](C)NC(=O)[C@H](C)NC(=O)[C@H](CO)NC(=O)[C@@H]1CCCN1C(=O)[C@@H](N)CS)C(N)=O` [CL8, reference compound] (H-CPSAAHYL-NH2) was tested, and the hemolysis safety (red blood cells) was “good hemolysis safety” and the Kd (rhCTGF‐His tag protein) was 1230 nM.

In the case of CPSAAHYL (modifications not checked) [CL8 peptide], the Kd [3] is reported as 1230 nM.

CPSAAHYL (not fully specified (C-terminus)) [CL8‐M6P3] was tested, and the Kd [4] was 13.4 µM.
